Biological target: CFTR-mediated chloride transport (Homo sapiens, UniProt P13569)
Assay: Corrector Assay A - membrane potential dye assay (enteroid cells)
Conditions: for Corrector Assay A % activity: % of chloride transport of triple combination control (1 μM (14S)-dispiro macrocycle + 3 μM tezacaftor + 300 nM ivacaftor); for EC50: read-out: Corrector Assay A EC50, human intestinal enteroid cells, 18-24 h incubation, acute 10 μM forskolin + 300 nM ivacaftor

Row | SMILES | Corrector Assay A % activity | EC50
1 | CC(C)(C)c1ccc2c(n1)N1CC(CCCNc3cc(O)cc(n3)S(=O)(=O)NC2=O)CC1(C)C (single isomer, unassigned) [Compound 251, 8-tert-butyl-21-hydroxy-12,12-dimethyl-2λ^6-thia-3,9,11,18,23-pentaazatetracyclo[17.3.1.111,14.05,10]tetracosa-1(23),5,7,9,19,21-hexaene-2,2,4-trione] | + (+ is <30%) | 
2 | CC(C)C1CC[C@@H]2CN(c3nc(C(C)(C)C)ccc3C(=O)NS(=O)(=O)c3cccc(n3)N1)C(C)(C)C2 (single isomer, unassigned) [Compound 286] | +++ (+++ is >60%) | < 1 µM
3 | CC(C)(C)c1ccnc([C@@H]2CC[C@@H]3CN(c4nc5ccccc5cc4C(=O)NS(=O)(=O)c4cccc(n4)N2)C(C)(C)C3)c1 (single isomer, unassigned) [Compound 9] | +++ (+++ is >60%) | < 1 µM
4 | CC(C)(O)/C=C/CC1CC[C@@H]2CN(c3nc(C(C)(C)C)ccc3C(=O)NS(=O)(=O)c3cccc(n3)N1)C(C)(C)C2 (single isomer, unassigned) [Compound 24] | ++ (++ is 30-60%) | < 1 µM
5 | CC1(C)OCCc2cc3c(nc21)N1C[C@@H](CCC(c2ccccn2)Nc2cccc(n2)S(=O)(=O)NC3=O)CC1(C)C (single isomer, unassigned) [Compound 213] | ++ (++ is 30-60%) | 1 to 3 µM
6 | CC(C)O[C@H]1C[C@@H](Oc2ccc3c(n2)N2C[C@@H](CC[C@H](c4ccccn4)Nc4cccc(n4)S(=O)(=O)NC3=O)CC2(C)C)C1 [Compound 161, (14S,17R)-12,12-dimethyl-17-(pyridin-2-yl)-8-[(1s,3S)-3-(propan-2-yloxy)cyclobutoxy]-2λ^6-thia-3,9,11,18,23-pentaazatetracyclo[17.3.1.111,14.05,10]tetracosa-1(22),5,7,9,19(23),20-hexaene-2,2,4-trione] | +++ (+++ is >60%) | < 1 µM
7 | CC(C)(C)c1ccc2c(n1)N1C[C@@H](CCC(C)(c3ccccn3)Nc3cccc(n3)S(=O)(=O)NC2=O)CC1(C)C (single isomer, unassigned) [Compound 45] | ++ (++ is 30-60%) | < 1 µM
8 | Cn1ccc(-c2ccc(C3CC[C@@H]4CN(c5nc(C(C)(C)C)ccc5C(=O)NS(=O)(=O)c5cccc(n5)N3)C(C)(C)C4)nc2)n1 (stereo partly drawn) [Compound 59] | + (+ is <30%) | < 1 µM
9 | CC(C)(C)c1ccc2c(n1)N1C[C@@H](CCC(c3ccc(N4CCCCC4)cn3)Nc3cccc(n3)S(=O)(=O)NC2=O)CC1(C)C (stereo partly drawn) [Compound 185] | ++ (++ is 30-60%) | < 1 µM
10 | CC(C)(C)c1ccc2c(n1)N1C[C@@H](CCC(CC(O)CO)Nc3cccc(n3)S(=O)(=O)NC2=O)CC1(C)C (single isomer, unassigned) [Compound 33] | +++ (+++ is >60%) | < 1 µM
11 | CN1c2cccc(n2)S(=O)(=O)NC(=O)c2ccc(C(C)(C)C)nc2N2C[C@@H](CC[C@H]1c1ccccc1)CC2(C)C [Compound 262] | +++ (+++ is >60%) | < 1 µM
12 | COC(=O)N1CCC(c2ccnc(C3CC[C@@H]4CN(c5nc(C(C)(C)C)ccc5C(=O)NS(=O)(=O)c5cccc(n5)N3)C(C)(C)C4)c2)CC1 (stereo partly drawn) [Compound 96, methyl 4-{2-[(14S)-8-tert-butyl-12,12-dimethyl-2,2,4-trioxo-2λ^6-thia-3,9,11,18,23-pentaazatetracyclo[17.3.1.111,14.05,10]tetracosa-1(23),5(10),6,8,19,21-hexaen-17-yl]pyridin-4-yl}piperidine-1-carboxylate] | +++ (+++ is >60%) | < 1 µM
13 | CC1(C)C[C@@H]2CC[C@H](c3ccccn3)Nc3cccc(n3)S(=O)(=O)NC(=O)c3ccc(-c4c(Cl)cccc4Cl)nc3N1C2 [Compound 341] | +++ (+++ is >60%) | < 1 µM
14 | CC(C)(C)c1ccc2c(n1)N1C[C@@H](CCC(CCCC(=O)NCc3ccccc3)Nc3cccc(n3)S(=O)(=O)NC2=O)CC1(C)C (stereo partly drawn) [Compound 15, N-benzyl-4-[(14S)-8-tert-butyl-12,12-dimethyl-2,2,4-trioxo-2λ^6-thia-3,9,11,18,23-pentaazatetracyclo[17.3.1.111,14.05,10]tetracosa-1(23),5(10),6,8,19,21-hexaen-17-yl]butanamide] | +++ (+++ is >60%) | < 1 µM
15 | CN1CCN(c2ccc3c(n2)N2C[C@@H](CC[C@H](c4ccccn4)Nc4cccc(n4)S(=O)(=O)NC3=O)CC2(C)C)C1=O [Compound 333] | +++ (+++ is >60%) | 1 to 3 µM
16 | CC(C)C1CC[C@@H]2CN(c3nc(-n4ccc(OCCC5C6(CC6)C56CC6)n4)ccc3C(=O)NS(=O)(=O)c3cccc(n3)N1)C(C)(C)C2 (single isomer, unassigned) [Compound 353] | +++ (+++ is >60%) | < 1 µM
17 | CC(C)(C)c1ccc2c(n1)N1C[C@@H](CC[C@H](c3cccc(-c4cn[nH]c4)n3)Nc3cccc(n3)S(=O)(=O)NC2=O)CC1(C)C [Compound 67] | +++ (+++ is >60%) | < 1 µM
18 | CC1(C)CC(C2CC[C@@H]3CN(c4nc(C(C)(C)C)ccc4C(=O)NS(=O)(=O)c4cccc(n4)N2)C(C)(C)C3)CC(C)(C)O1 (single isomer, unassigned) [Compound 43] | + (+ is <30%) | 
19 | CC(C)(C)c1ccc2c(n1)N1C[C@@H](CCC(C(C)(C)O)Nc3cccc(n3)S(=O)(=O)NC2=O)CC1(C)C (stereo partly drawn) [Compound 12, (14S)-8-tert-Butyl-17-(2-hydroxypropan-2-yl)-12,12-dimethyl-2λ^6-thia-3,9,11,18,23-pentaazatetracyclo[17.3.1.111,14.05,10]tetracosa-1(23),5(10),6,8,19,21-hexaene-2,2,4-trione] | +++ (+++ is >60%) | < 1 µM
20 | CC(=O)NCc1cccc([C@H]2CC[C@@H]3CN(c4nc(C(C)(C)C)ccc4C(=O)NS(=O)(=O)c4cccc(n4)N2)C(C)(C)C3)n1 [Compound 100, N-({6-[(14S,17R)-8-tert-Butyl-12,12-dimethyl-2,2,4-trioxo-2λ^6-thia-3,9,11,18,23-pentaazatetracyclo[17.3.1.111,14.05,10]tetracosa-1(22),5,7,9,19(23),20-hexaen-17-yl]pyridin-2-yl}methyl)acetamide] | +++ (+++ is >60%) | < 1 µM

Next, values leading:

Row | Corrector Assay A % activity | EC50 | SMILES
21 | +++ (+++ is >60%) | < 1 µM | CC(C)(C)c1ccc2c(n1)N1C[C@@H](CCC(c3ccc(N)cn3)Nc3cccc(n3)S(=O)(=O)NC2=O)CC1(C)C (stereo partly drawn) [Compound 63]
22 | ++ (++ is 30-60%) | < 1 µM | CC(C)(C)c1ccc2c(n1)N1C[C@@H](CC[C@@H](c3cccc(CN)n3)Nc3cccc(n3)S(=O)(=O)NC2=O)CC1(C)C [Compound 202]
23 | ++ (++ is 30-60%) | < 1 µM | CC(C)(C)c1ccc2c(n1)N1C[C@@H](CC[C@@H](c3ccncn3)Nc3cccc(n3)S(=O)(=O)NC2=O)CC1(C)C (single isomer, unassigned) [Compound 217]
24 | +++ (+++ is >60%) | < 1 µM | CC(C)(C)c1ccc2c(n1)N1C[C@@H](CCC(c3ccc(C4COC4)cn3)Nc3cccc(n3)S(=O)(=O)NC2=O)CC1(C)C (single isomer, unassigned) [Compound 39]
25 | ++ (++ is 30-60%) | < 1 µM | CC(C)(C)c1ccc2c(n1)N1C[C@@H](CCC(c3ncccc3Cl)Nc3cccc(n3)S(=O)(=O)NC2=O)CC1(C)C (single isomer, unassigned) [Compound 65]
26 | ++ (++ is 30-60%) | < 1 µM | CC(C)(C)c1cccc(C2CC[C@@H]3CN(c4nc(C(C)(C)C)ccc4C(=O)NS(=O)(=O)c4cccc(n4)N2)C(C)(C)C3)n1 (single isomer, unassigned) [Compound 179]
27 | ++ (++ is 30-60%) | < 1 µM | COCCc1ccc(C2CC[C@@H]3CN(c4nc(C(C)(C)C)ccc4C(=O)NS(=O)(=O)c4cccc(n4)N2)C(C)(C)C3)nc1 (stereo partly drawn) [Compound 111]
28 | +++ (+++ is >60%) | < 1 µM | CC(C)(C)NCc1ccnc([C@@H]2CC[C@@H]3CN(c4nc(C(C)(C)C)ccc4C(=O)NS(=O)(=O)c4cccc(n4)N2)C(C)(C)C3)c1 (single isomer, unassigned) [Compound 61]
29 | ++ (++ is 30-60%) | < 1 µM | CC(C)(C)c1ccc2c(n1)N1C[C@@H](CCC(c3ccc(C4CNC4)cn3)Nc3cccc(n3)S(=O)(=O)NC2=O)CC1(C)C (stereo partly drawn) [Compound 165]
30 | +++ (+++ is >60%) | < 1 µM | CC(C)(C)c1ccc2c(n1)N1C[C@@H](CC[C@@H](c3cc(-c4cn[nH]c4)ccn3)Nc3cccc(n3)S(=O)(=O)NC2=O)CC1(C)C (single isomer, unassigned) [Compound 68]
31 | ++ (++ is 30-60%) | < 1 µM | CC(C)(C)c1ccc2c(n1)N1C[C@@H](CCC(c3cc(N)ccn3)Nc3cccc(n3)S(=O)(=O)NC2=O)CC1(C)C (single isomer, unassigned) [Compound 49]
32 | +++ (+++ is >60%) | < 1 µM | CC(C)(C)c1ccc2c(n1)N1C[C@@H](CCC(c3cc(C#N)ccn3)Nc3cccc(n3)S(=O)(=O)NC2=O)CC1(C)C (single isomer, unassigned) [Compound 144]
33 | +++ (+++ is >60%) | < 1 µM | CC(C)(C)c1ccc2c(n1)N1C[C@@H](CCC(c3cccnc3)Nc3cccc(n3)S(=O)(=O)NC2=O)CC1(C)C (single isomer, unassigned) [Compound 283]
34 | ++ (++ is 30-60%) | < 1 µM | COC(=O)NCc1ccnc(C2CC[C@@H]3CN(c4nc(C(C)(C)C)ccc4C(=O)NS(=O)(=O)c4cccc(n4)N2)C(C)(C)C3)c1 (single isomer, unassigned) [Compound 107]

Reference: patent publication US20220313698A1, “MODULATORS OF CYSTIC FIBROSIS TRANSMEMBRANE CONDUCTANCE REGULATOR” (Vertex Pharmaceuticals Incorporated, priority 2019, published 2022)
